Test results: PubChem BioAssay AID2060500 (Molecular Pharmacology Branch, DTP, NCI, 2025)

System: 596521-263-R-J1-PDC complex spheroids, viability % of control
Test: Anticancer human tumor 596521-263-R-J1-PDC patient-derived soft tissue sarcoma cell line growth inhibition [GQUAD]
Conditions: for IC50: curve of first compound; for viability, T/C: stronger effect = lower value
In short: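 Multi-cell-type spheroids of tumor cells with HUVEC and mesenchymal stem cells, treated with drug combinations. Concentrations descend in half-log steps from near clinical Cmax, or from 10 microM where Cmax is unknown; viability read-out.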

[1] = second compound 0.0316 µM, first compound 0.0316 µM
[2] = second compound 0.0316 µM, first compound 0.1 µM
[3] = second compound 0.0316 µM, first compound 0.316 µM
[4] = second compound 0.0316 µM, first compound 1 µM
[5] = second compound 0.0316 µM, first compound 3.16 µM
[6] = second compound 0.0316 µM, first compound 10 µM
[7] = second compound 0.1 µM, first compound 0.0316 µM
[8] = second compound 0.1 µM, first compound 0.1 µM
[9] = second compound 0.1 µM, first compound 0.316 µM
[10] = second compound 0.1 µM, first compound 1 µM
[11] = second compound 0.1 µM, first compound 3.16 µM
[12] = second compound 0.1 µM, first compound 10 µM
[13] = second compound 0.316 µM, first compound 0.0316 µM
[14] = second compound 0.316 µM, first compound 0.1 µM
[15] = second compound 0.316 µM, first compound 0.316 µM
[16] = second compound 0.316 µM, first compound 1 µM
[17] = second compound 0.316 µM, first compound 3.16 µM
[18] = second compound 0.316 µM, first compound 10 µM
[19] = second compound 1 µM, first compound 0.0316 µM
[20] = second compound 1 µM, first compound 0.1 µM
[21] = second compound 1 µM, first compound 0.316 µM
[22] = second compound 1 µM, first compound 1 µM
[23] = second compound 1 µM, first compound 3.16 µM
[24] = second compound 1 µM, first compound 10 µM
[25] = second compound 3.16 µM, first compound 0.0316 µM
[26] = second compound 3.16 µM, first compound 0.1 µM
[27] = second compound 3.16 µM, first compound 0.316 µM
[28] = second compound 3.16 µM, first compound 1 µM
[29] = second compound 3.16 µM, first compound 3.16 µM
[30] = second compound 3.16 µM, first compound 10 µM
[31] = second compound 10 µM, first compound 0.0316 µM
[32] = second compound 10 µM, first compound 0.1 µM
[33] = second compound 10 µM, first compound 0.316 µM
[34] = second compound 10 µM, first compound 1 µM
[35] = second compound 10 µM, first compound 3.16 µM
[36] = second compound 10 µM, first compound 10 µM
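Also: spheroids exposed to drugs for 7 days before viability reading.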
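For viability, T/C in this document: 100% = DMSO vehicle control viability.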

## C#Cc1c(F)ccc2cc(O)cc(-c3ncc4c(N5CC6CCC(C5)N6)nc(OCC56CCCN5CC(F)C6)nc4c3F)c12 (stereo not drawn) + Cc1[nH]c2ccc(F)cc2c1-c1nc2c3cccnc3c3ncccc3c2[nH]1
Second compound 0.0316 µM
  IC50: 1280 nM
Second compound 0.1 µM
  IC50: 1390 nM
Second compound 0.316 µM
  IC50: 1380 nM
Second compound 1 µM
  IC50: 1350 nM
Second compound 3.16 µM
  IC50: 1710 nM
Second compound 10 µM
  IC50: 1490 nM
[1]
  viability, T/C: 111%
[2]
  viability, T/C: 94.7%
[3]
  viability, T/C: 89.1%
[4]
  viability, T/C: 60.9%
[5]
  viability, T/C: 17.9%
[6]
  viability, T/C: 18.9%
[7]
  viability, T/C: 104%
[8]
  viability, T/C: 93.3%
[9]
  viability, T/C: 97.4%
[10]
  viability, T/C: 62.1%
[11]
  viability, T/C: 17.5%
[12]
  viability, T/C: 22.7%
[13]
  viability, T/C: 113%
[14]
  viability, T/C: 95.6%
[15]
  viability, T/C: 97.3%
[16]
  viability, T/C: 62.5%
[17]
  viability, T/C: 16.1%
[18]
  viability, T/C: 21.2%
[19]
  viability, T/C: 88%
[20]
  viability, T/C: 87.7%
[21]
  viability, T/C: 92.9%
[22]
  viability, T/C: 59.9%
[23]
  viability, T/C: 21.1%
[24]
  viability, T/C: 22.5%
[25]
  viability, T/C: 83.8%
[26]
  viability, T/C: 95.1%
[27]
  viability, T/C: 80.7%
[28]
  viability, T/C: 65.9%
[29]
  viability, T/C: 31.6%
[30]
  viability, T/C: 29%
[31]
  viability, T/C: 78.3%
[32]
  viability, T/C: 78%
[33]
  viability, T/C: 81%
[34]
  viability, T/C: 60.8%
[35]
  viability, T/C: 29.1%
[36]
  viability, T/C: 30%

## CC(C)(O)C1CCC(Nc2ccc3ncc(-c4cccc(C(F)(F)F)c4)n3n2)CC1 (stereo not drawn) + Cc1[nH]c2ccc(F)cc2c1-c1nc2c3cccnc3c3ncccc3c2[nH]1
Second compound 0.0316 µM
  IC50: > 10000 nM
Second compound 0.1 µM
  IC50: > 10000 nM
Second compound 0.316 µM
  IC50: > 10000 nM
Second compound 1 µM
  IC50: > 10000 nM
Second compound 3.16 µM
  IC50: > 10000 nM
Second compound 10 µM
  IC50: > 10000 nM
[1]
  viability, T/C: 98.3%
[2]
  viability, T/C: 96.8%
[3]
  viability, T/C: 97.9%
[4]
  viability, T/C: 101%
[5]
  viability, T/C: 102%
[6]
  viability, T/C: 87.2%
[7]
  viability, T/C: 120%
[8]
  viability, T/C: 92.5%
[9]
  viability, T/C: 92.3%
[10]
  viability, T/C: 100%
[11]
  viability, T/C: 96.4%
[12]
  viability, T/C: 81.7%
[13]
  viability, T/C: 98.5%
[14]
  viability, T/C: 90.6%
[15]
  viability, T/C: 103%
[16]
  viability, T/C: 92.3%
[17]
  viability, T/C: 103%
[18]
  viability, T/C: 82.9%
[19]
  viability, T/C: 90.7%
[20]
  viability, T/C: 88.5%
[21]
  viability, T/C: 98.5%
[22]
  viability, T/C: 101%
[23]
  viability, T/C: 106%
[24]
  viability, T/C: 79.5%
[25]
  viability, T/C: 89.3%
[26]
  viability, T/C: 96.5%
[27]
  viability, T/C: 94.1%
[28]
  viability, T/C: 83.2%
[29]
  viability, T/C: 95.2%
[30]
  viability, T/C: 80.6%
[31]
  viability, T/C: 77.7%
[32]
  viability, T/C: 92%
[33]
  viability, T/C: 91%
[34]
  viability, T/C: 86.4%
[35]
  viability, T/C: 84.9%
[36]
  viability, T/C: 68.6%

## Cc1[nH]c2ccccc2c1CCNCc1ccc(/C=C/C(=O)NO)cc1 + Cc1[nH]c2ccc(F)cc2c1-c1nc2c3cccnc3c3ncccc3c2[nH]1
Second compound 0.0316 µM
  IC50: > 316 nM
Second compound 0.1 µM
  IC50: > 316 nM
Second compound 0.316 µM
  IC50: > 316 nM
Second compound 1 µM
  IC50: > 316 nM
Second compound 3.16 µM
  IC50: > 316 nM
Second compound 10 µM
  IC50: > 316 nM
Second compound 0.0316 µM, first compound 0.000999 µM
  viability, T/C: 108%
Second compound 0.0316 µM, first compound 0.00316 µM
  viability, T/C: 97%
Second compound 0.0316 µM, first compound 0.00999 µM
  viability, T/C: 100%
[1]
  viability, T/C: 82%
Second compound 0.0316 µM, first compound 0.0999 µM
  viability, T/C: 96.4%
[3]
  viability, T/C: 90.1%
Second compound 0.1 µM, first compound 0.000999 µM
  viability, T/C: 99.3%
Second compound 0.1 µM, first compound 0.00316 µM
  viability, T/C: 90.6%
Second compound 0.1 µM, first compound 0.00999 µM
  viability, T/C: 94.2%
[7]
  viability, T/C: 91.3%
Second compound 0.1 µM, first compound 0.0999 µM
  viability, T/C: 86.9%
[9]
  viability, T/C: 92.7%
Second compound 0.316 µM, first compound 0.000999 µM
  viability, T/C: 102%
Second compound 0.316 µM, first compound 0.00316 µM
  viability, T/C: 94.7%
Second compound 0.316 µM, first compound 0.00999 µM
  viability, T/C: 93.2%
[13]
  viability, T/C: 94.3%
Second compound 0.316 µM, first compound 0.0999 µM
  viability, T/C: 87%
[15]
  viability, T/C: 94.9%
Second compound 1 µM, first compound 0.000999 µM
  viability, T/C: 95.9%
Second compound 1 µM, first compound 0.00316 µM
  viability, T/C: 99.6%
Second compound 1 µM, first compound 0.00999 µM
  viability, T/C: 91.4%
[19]
  viability, T/C: 83.9%
Second compound 1 µM, first compound 0.0999 µM
  viability, T/C: 90.1%
[21]
  viability, T/C: 94.2%
Second compound 3.16 µM, first compound 0.000999 µM
  viability, T/C: 82.6%
Second compound 3.16 µM, first compound 0.00316 µM
  viability, T/C: 82.2%
Second compound 3.16 µM, first compound 0.00999 µM
  viability, T/C: 91%
[25]
  viability, T/C: 90.1%
Second compound 3.16 µM, first compound 0.0999 µM
  viability, T/C: 84.1%
[27]
  viability, T/C: 88.8%
Second compound 10 µM, first compound 0.000999 µM
  viability, T/C: 81.2%
Second compound 10 µM, first compound 0.00316 µM
  viability, T/C: 67.2%
Second compound 10 µM, first compound 0.00999 µM
  viability, T/C: 85%
[31]
  viability, T/C: 75.5%
Second compound 10 µM, first compound 0.0999 µM
  viability, T/C: 76.4%
[33]
  viability, T/C: 72%

## O=C(NO)c1cnc(N2CCN(S(=O)(=O)c3ccc4ccccc4c3)CC2)nc1 + Cc1[nH]c2ccc(F)cc2c1-c1nc2c3cccnc3c3ncccc3c2[nH]1
Second compound 0.0316 µM
  IC50: < 31.6 nM
Second compound 0.1 µM
  IC50: < 31.6 nM
Second compound 0.316 µM
  IC50: < 31.6 nM
Second compound 1 µM
  IC50: < 31.6 nM
Second compound 3.16 µM
  IC50: < 31.6 nM
Second compound 10 µM
  IC50: < 31.6 nM
[1]
  viability, T/C: 37.6%
[2]
  viability, T/C: 28.2%
[3]
  viability, T/C: 30.4%
[4]
  viability, T/C: 28.5%
[5]
  viability, T/C: 27.2%
[6]
  viability, T/C: 30.4%
[7]
  viability, T/C: 39.1%
[8]
  viability, T/C: 25.8%
[9]
  viability, T/C: 25.8%
[10]
  viability, T/C: 22%
[11]
  viability, T/C: 29.8%
[12]
  viability, T/C: 28%
[13]
  viability, T/C: 38.3%
[14]
  viability, T/C: 29.6%
[15]
  viability, T/C: 29.6%
[16]
  viability, T/C: 27%
[17]
  viability, T/C: 26.9%
[18]
  viability, T/C: 25.5%
[19]
  viability, T/C: 39.1%
[20]
  viability, T/C: 30.3%
[21]
  viability, T/C: 29.2%
[22]
  viability, T/C: 25.8%
[23]
  viability, T/C: 27.6%
[24]
  viability, T/C: 29.3%
[25]
  viability, T/C: 39.5%
[26]
  viability, T/C: 34.5%
[27]
  viability, T/C: 29.7%
[28]
  viability, T/C: 27.1%
[29]
  viability, T/C: 26.1%
[30]
  viability, T/C: 27.7%
[31]
  viability, T/C: 44.2%
[32]
  viability, T/C: 31.5%
[33]
  viability, T/C: 29.5%
[34]
  viability, T/C: 28.9%
[35]
  viability, T/C: 29.6%
[36]
  viability, T/C: 29.8%
